The target in this assay is T1, glucocerebrosidase (GCase; recombinant human-derived GBA/Glucosylceramidase, rGCase) (Homo sapiens, UniProt P04062).
T1 construct: gene GBA1; recombinant human-derived GBA/Glucosylceramidase (rGCase)
T1 sequence (P04062 40-536): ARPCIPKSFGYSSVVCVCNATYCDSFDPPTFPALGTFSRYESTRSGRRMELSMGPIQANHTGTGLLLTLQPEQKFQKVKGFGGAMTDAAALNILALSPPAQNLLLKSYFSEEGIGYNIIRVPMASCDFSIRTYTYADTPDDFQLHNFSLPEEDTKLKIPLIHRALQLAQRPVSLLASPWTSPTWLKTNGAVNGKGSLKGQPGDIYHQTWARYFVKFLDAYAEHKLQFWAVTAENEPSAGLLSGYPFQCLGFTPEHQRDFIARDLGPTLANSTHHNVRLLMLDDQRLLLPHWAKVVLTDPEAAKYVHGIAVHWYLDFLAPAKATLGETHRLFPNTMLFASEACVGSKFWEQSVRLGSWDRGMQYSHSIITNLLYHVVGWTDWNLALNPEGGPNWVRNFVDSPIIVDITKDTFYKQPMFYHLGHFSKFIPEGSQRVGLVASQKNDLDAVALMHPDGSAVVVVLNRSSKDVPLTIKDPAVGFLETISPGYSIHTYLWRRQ
As to the kind of experiment: fluorogenic 4MU-β-Glc inhibition assay with recombinant GCase, pH […]. Type of assay: biochemical.

Each structure is given as a SMILES string.

The IC50 is the concentration at which inhibition is half-maximal.

With `CC(=O)NCC(=O)O` [NAG, N-acetylglycine], the IC50 stood at 48.5 µM.

For the origin of these results see PMC12560097, “An injectable hydrogel containing N-acetylglycine for the treatment of Gaucher disease” (RSC Advances, 2025).
